Source: patent US20080269251A1, “Substituted Pyrazinone Derivatives as Alpha2C-Adrenoreceptor Antagonists” (priority 2005, published 2008)

Legend:
[1] = biological target: T1, human adrenergic-α2C receptor (Homo sapiens, UniProt P18825); experiment: Radioligand binding experiment for hα2C-adrenoceptor ([3H]raulwolscine); conditions: [3H]raulwolscine 1 nM, 60 minutes at 25° C.; for IC50: read-out: h-α2C pIC50 (converted)
T1 construct: expressed in transfected cells; host or cells: CHO cells, stably transfected; membrane preparation
T1 sequence (P18825 1-462): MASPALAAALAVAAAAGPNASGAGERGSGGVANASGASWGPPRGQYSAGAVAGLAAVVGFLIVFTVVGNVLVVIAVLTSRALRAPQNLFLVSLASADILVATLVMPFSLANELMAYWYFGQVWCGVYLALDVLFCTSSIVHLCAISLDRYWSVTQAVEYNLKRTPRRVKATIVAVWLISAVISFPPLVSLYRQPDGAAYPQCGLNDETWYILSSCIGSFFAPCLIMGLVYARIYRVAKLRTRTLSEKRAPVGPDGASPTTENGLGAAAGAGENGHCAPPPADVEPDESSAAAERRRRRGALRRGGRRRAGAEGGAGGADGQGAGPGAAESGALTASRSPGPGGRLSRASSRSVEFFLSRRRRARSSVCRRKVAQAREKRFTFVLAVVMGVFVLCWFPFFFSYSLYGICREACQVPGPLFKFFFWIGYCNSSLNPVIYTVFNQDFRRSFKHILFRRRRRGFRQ
Procedure: (§1) The interaction of the compounds of Formula (I) with α2C-adrenoceptor receptors was assessed in in vitro radioligand binding experiments. In general, a low concentration of a radioligand with a high binding affinity for a particular receptor or transporter is incubated with a sample of a tissue preparation enriched in a particular receptor or transporter or with a preparation of cells expressing cloned human receptors in a buffered medium. During the incubation, the radioligand binds to the receptor or transporter. When equilibrium of binding is reached, the receptor bound radioactivity is separated from the non-bound radioactivity, and the receptor- or transporter-bound activity is counted. The interaction of the test compounds with the receptor is assessed in competition binding experiments. Various concentrations of the test compound are added to the incubation mixture containing the receptor- or transporter preparation and the radioligand. The test compound in proportion to its binding affinity and its concentration inhibits binding of the radioligand. The radioligand used for […] receptor binding was [^3H]-raulwolscine.
(§2) CHO cells, stabile transfected with human adrenergic-α2A, -α2B or α2C receptor cDNA, were cultured in Dulbecco's Modified Eagle's Medium (DMEM)/Nutrient mixture Ham's F12 (ratio 1:1)(Gibco, Gent-Belgium) supplemented with 10% heat inactivated fetal calf serum (Life Technologies, Merelbeke-Belgium) and antibiotics (100 IU/ml penicillin G, 100 μg/ml streptomycin sulphate, 110 μg/ml pyruvic acid and 100 μg/ml L-glutamine). One day before collection, cells were induced with 5 mM sodiumbutyrate. Upon 80-90% of confluence, cells were scraped in phosphate buffered saline without Ca^2+ and Mg^2+ and collected by centrifugation at 1500×g for 10 minutes. The cells were homogenised in Tris-HCl 50 mM using an Ultraturrax homogenizer and centrifuged for 10 minutes at 23,500×g. The pellet was washed once by resuspension and rehomogenization and the final pellet was resuspended in Tris-HCl, divided in 1 ml aliquots and stored at −70° C.
(§3) Membranes were thawed and re-homogenized in incubation buffer (glycylglycine 25 mM, pH 8.0). In a total volume of 500 μl, 2-10 μg protein was incubated with [^3H]raulwolscine (NET-722) (New England Nuclear, USA) (1 nM final concentration) with or without competitor for 60 minutes at 25° C. followed by rapid filtration over GF/B filter using a Filtermate196 harvester (Packard, Meriden, Conn.). Filters were rinsed extensively with ice-cold rinsing buffer (Tris-HCl 50 mM pH 7.4). Filter-bound radioactivity was determined by scintillation counting in a Topcount (Packard, Meriden, Conn.) and results were expressed as counts per minute (cpm). Non-specific binding was determined in the presence of 1 μM oxymetazoline for hα2A- and hα2B receptors and 1 μM spiroxatrine for hα2C receptors.
(§4) Data from assays in the presence of compound were calculated as a percentage of total binding measured in the absence of test compound. Inhibition curves, plotting percent of total binding versus the log value of the concentration of the test compound, were automatically generated, and sigmoidal inhibition curves were fitted using non-linear regression. The pIC50 values of test compounds were derived from individual curves.

[2] = biological target: T2, human adrenergic-α2A receptor (Homo sapiens, UniProt P08913); experiment: Radioligand binding experiment for hα2A-adrenergic receptor ([3H]raulwolscine); conditions: [3H]raulwolscine 1 nM, 60 minutes at 25° C.; for IC50: read-out: h-α2A pIC50 (converted)
T2 construct: expressed in transfected cells; host or cells: CHO cells, stably transfected; membrane preparation
T2 sequence (P08913 1-465): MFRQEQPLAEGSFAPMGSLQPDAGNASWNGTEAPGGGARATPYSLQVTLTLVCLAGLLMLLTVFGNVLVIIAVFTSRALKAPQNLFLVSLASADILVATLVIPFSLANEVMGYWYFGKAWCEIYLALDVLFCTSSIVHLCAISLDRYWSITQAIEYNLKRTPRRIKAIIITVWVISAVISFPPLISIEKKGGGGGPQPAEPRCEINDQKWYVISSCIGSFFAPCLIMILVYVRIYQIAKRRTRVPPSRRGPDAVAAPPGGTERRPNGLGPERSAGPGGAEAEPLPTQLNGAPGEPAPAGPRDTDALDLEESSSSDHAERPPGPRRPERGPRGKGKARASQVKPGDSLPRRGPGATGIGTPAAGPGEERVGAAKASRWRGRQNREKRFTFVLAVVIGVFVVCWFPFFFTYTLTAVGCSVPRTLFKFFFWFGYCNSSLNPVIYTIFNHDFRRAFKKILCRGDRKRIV
Procedure: as §1, §2, §3, §4

5HT-transporter = biological target: T3, 5HT-transporter (Homo sapiens, UniProt P31645); experiment: Binding experiment for the 5HT-transporter ([3H]paroxetine, human platelet membranes); conditions: [3H]paroxetine 0.5 nM, 60 min at 25° C.; for IC50: read-out: h-5HTT pIC50 (converted)
T3 construct: Human platelet membranes (Oceanix Biosciences Corporation, Hanover, Md., USA) were thawed; tissue Oceanix Biosciences Corporation, Hanover, Md., USA; host or cells: human platelet membranes
Procedure: as §1
Human platelet membranes (Oceanix Biosciences Corporation, Hanover, Md., USA) were thawed, diluted in buffer (Tris-HCl 50 mM, 120 mM NaCl and 5 mM KCl) and quickly (max 3 s) homogenised with an Ultraturrax homogenizer. […] Incubation was stopped by rapid filtration of the incubation mixture over GF/B filters, pre-wetted with 0.1% polyethyleneamine, using a Filtermate196 harvester (Packard, Meriden, Conn.). Filters were rinsed extensively with ice-cold buffer and radioactivity on the filters was counted in a Topcount liquid scintillation counter (Packard, Meriden, Conn.). Data were expressed as cpm. Imipramine (at 1 μM final concentration) was used to determine the non-specific binding.
as §4

T3 sequence (P31645 whole entry): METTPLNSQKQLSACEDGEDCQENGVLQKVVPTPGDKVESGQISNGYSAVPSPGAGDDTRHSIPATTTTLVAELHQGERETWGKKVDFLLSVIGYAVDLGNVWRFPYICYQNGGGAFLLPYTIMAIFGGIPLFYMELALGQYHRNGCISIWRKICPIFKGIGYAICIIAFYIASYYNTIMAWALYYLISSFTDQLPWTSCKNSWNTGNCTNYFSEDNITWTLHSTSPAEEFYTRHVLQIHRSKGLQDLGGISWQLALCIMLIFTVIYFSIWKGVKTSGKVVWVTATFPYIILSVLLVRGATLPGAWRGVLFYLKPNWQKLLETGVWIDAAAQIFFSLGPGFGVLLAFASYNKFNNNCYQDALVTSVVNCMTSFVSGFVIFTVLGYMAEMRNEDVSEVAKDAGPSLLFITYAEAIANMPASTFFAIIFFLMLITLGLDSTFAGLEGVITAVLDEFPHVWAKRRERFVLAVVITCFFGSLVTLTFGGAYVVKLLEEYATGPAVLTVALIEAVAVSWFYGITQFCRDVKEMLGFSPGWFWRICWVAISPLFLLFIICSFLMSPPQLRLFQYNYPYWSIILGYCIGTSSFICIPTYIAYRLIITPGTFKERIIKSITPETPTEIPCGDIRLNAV

Structure (SMILES) | IC50 [1] [nM] | IC50 [2] [nM] | IC50 (5HT-transporter) [nM] | h-α2C pIC50 [1] | h-α2A pIC50 [2] | h-5HTT pIC50 (5HT-transporter)
Cc1ccc(CNC(=O)NCc2ccc(-n3ccnc(NC4CCN(Cc5ccc6ccccc6c5)CC4)c3=O)cc2)cc1F [1-49] | 39.8 | 501 | 39.8 |  |  | 
O=C(NCc1ccc(-n2ccnc(NC3CCN(Cc4ccc5ccccc5c4)CC3)c2=O)cc1)NCc1cc(F)cc(C(F)(F)F)c1 [1-50] | 200 | 1260 | 63.1 |  |  | 
O=C(NCCCc1ccccc1)NCc1ccc(-n2ccnc(NC3CCN(Cc4ccc5ccccc5c4)CC3)c2=O)cc1 [1-51] |  |  |  | 7.1 | 6.4 | 7.8
O=C(NCc1ccc(-n2ccnc(NC3CCN(Cc4ccc5ccccc5c4)CC3)c2=O)cc1)Nc1ccccc1 [1-52] |  |  |  | 7.2 | 6.3 | 8.1
O=C(NCCCn1ccnc(NC2CCN(Cc3ccc4ccccc4c3)CC2)c1=O)Nc1ccccc1 [1-53] | 20 | 631 | 7.94 |  |  | 
O=C(NCc1ccc(-n2ccnc(NC3CCN(Cc4ccc5ccccc5c4)CC3)c2=O)cc1)Nc1cc(Cl)ccc1Cl [1-54] |  |  |  | 6.7 | 6.0 | 6.8
CCOC(=O)N1CCC(NC(=O)NCc2ccc(-n3ccnc(NC4CCN(Cc5ccc6ccccc6c5)CC4)c3=O)cc2)CC1 [1-55] | 100 | 631 | 63.1 |  |  | 
NC(=O)CCNCc1ccc(-n2ccnc(NC3CCN(Cc4ccc5ccccc5c4)CC3)c2=O)cc1 [1-56] | 25.1 | 251 | 15.8 |  |  | 
CN(CC(=O)N(C)C)Cc1ccc(-n2ccnc(NC3CCN(Cc4ccc5ccccc5c4)CC3)c2=O)cc1 [1-57] | 15.8 | 251 | 50.1 |  |  | 
CCN(CC)CCC(=O)NCc1ccc(-n2ccnc(NC3CCN(Cc4ccc5ccccc5c4)CC3)c2=O)cc1 [1-58] | 7.94 | 79.4 | 6.31 |  |  | 
CN(C)C(=O)CCC(=O)NCc1ccc(-n2ccnc(NC3CCN(Cc4ccc5ccccc5c4)CC3)c2=O)cc1 [1-59] | 39.8 | 316 | 31.6 |  |  | 
CC(=O)NCCN(C)Cc1ccc(-n2ccnc(NC3CCN(Cc4ccc5ccccc5c4)CC3)c2=O)cc1 [1-60] | 25.1 | 200 | 10 |  |  | 
CC(=O)NCCNCc1ccc(-n2ccnc(NC3CCN(Cc4ccc5ccccc5c4)CC3)c2=O)cc1 [1-61] | 12.6 | 200 | 10 |  |  | 
CC(=O)NCCCC(=O)NCc1ccc(-n2ccnc(NC3CCN(Cc4ccc5ccccc5c4)CC3)c2=O)cc1 [1-62] |  |  |  | 7.3 | 6.4 | 7.5
CN(C(=O)Cn1ccnc(NC2CCN(Cc3ccc4ccccc4c3)CC2)c1=O)c1ccccc1 [1-63] | 25.1 | 158 | 63.1 |  |  | 
O=C(Cn1ccnc(NC2CCN(Cc3ccc4ccccc4c3)CC2)c1=O)Nc1ccccc1 [1-64] | 31.6 | 158 | 126 |  |  | 
